Source: PubChem BioAssay AID1963974 (Molecular Pharmacology Branch, DTP, NCI, 2024)

Tested on: 648629-189-R-J1-PDC spheroids with HUVEC/MSC, viability
Test: Anticancer human tumor 648629-189-R-J1-PDC patient-derived bladder carcinoma cell line growth inhibition [PI3K]
Settings: for viability, T/C: stronger effect = lower value
How it was run: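 Multi-cell spheroids combine tumor cells with HUVEC and human MSCs, treated with targeted agents alone or with inavolisib, alpelisib, duvelisib or copanlisib. Concentrations fall in half-log steps from at or near clinical Cmax, or from 10 microM where Cmax is unknown; viability read-out.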

[1] = curve of first compound, second compound 0.00316 µM
[2] = curve of first compound, second compound 0.01 µM
[3] = curve of first compound, second compound 0.0316 µM
[4] = curve of first compound, second compound 0.1 µM
[5] = curve of first compound, second compound 0.316 µM
[6] = curve of first compound, second compound 1 µM
[7] = second compound 0.00316 µM, first compound 0.00316 µM
[8] = second compound 0.00316 µM, first compound 0.01 µM
[9] = second compound 0.00316 µM, first compound 0.0316 µM
[10] = second compound 0.00316 µM, first compound 0.1 µM
[11] = second compound 0.01 µM, first compound 0.00316 µM
[12] = second compound 0.01 µM, first compound 0.01 µM
[13] = second compound 0.01 µM, first compound 0.0316 µM
[14] = second compound 0.01 µM, first compound 0.1 µM
[15] = second compound 0.0316 µM, first compound 0.00316 µM
[16] = second compound 0.0316 µM, first compound 0.01 µM
[17] = second compound 0.0316 µM, first compound 0.0316 µM
[18] = second compound 0.0316 µM, first compound 0.1 µM
[19] = second compound 0.1 µM, first compound 0.00316 µM
[20] = second compound 0.1 µM, first compound 0.01 µM
[21] = second compound 0.1 µM, first compound 0.0316 µM
[22] = second compound 0.1 µM, first compound 0.1 µM
[23] = second compound 0.316 µM, first compound 0.00316 µM
[24] = second compound 0.316 µM, first compound 0.01 µM
[25] = second compound 0.316 µM, first compound 0.0316 µM
[26] = second compound 0.316 µM, first compound 0.1 µM
[27] = second compound 1 µM, first compound 0.00316 µM
[28] = second compound 1 µM, first compound 0.01 µM
[29] = second compound 1 µM, first compound 0.0316 µM
[30] = second compound 1 µM, first compound 0.1 µM
[31] = second compound 0.00316 µM, first compound 0.000316 µM
[32] = second compound 0.00316 µM, first compound 0.001 µM
[33] = second compound 0.01 µM, first compound 0.000316 µM
[34] = second compound 0.01 µM, first compound 0.001 µM
[35] = second compound 0.0316 µM, first compound 0.000316 µM
[36] = second compound 0.0316 µM, first compound 0.001 µM
[37] = second compound 0.1 µM, first compound 0.000316 µM
[38] = second compound 0.1 µM, first compound 0.001 µM
[39] = second compound 0.316 µM, first compound 0.000316 µM
[40] = second compound 0.316 µM, first compound 0.001 µM
[41] = second compound 1 µM, first compound 0.000316 µM
[42] = second compound 1 µM, first compound 0.001 µM
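Further: spheroids exposed to agents for seven days before reading.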
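Wherever viability, T/C is given: percent of vehicle control luminescence where 100% = DMSO treated spheroids.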

SMILES: CCN1CCN(Cc2ccc(Nc3ncc(F)c(-c4cc(F)c5nc(C)n(C(C)C)c5c4)n3)nc2)CC1 + COc1c(OCCCN2CCOCC2)ccc2c3n(c(=NC(=O)c4cnc(N)nc4)nc12)CCN3
- IC50 [1]: > 1000 nM
- IC50 [2]: > 1000 nM
- IC50 [3]: > 1000 nM
- IC50 [4]: > 1000 nM
- IC50 [5]: < 3.16 nM
- IC50 [6]: < 3.16 nM
- viability, T/C [7]: 91%
- viability, T/C [8]: 94.8%
- viability, T/C [9]: 110%
- viability, T/C [10]: 101%
- viability, T/C (second compound 0.00316 µM, first compound 0.316 µM): 115%
- viability, T/C (second compound 0.00316 µM, first compound 1 µM): 104%
- viability, T/C [11]: 102%
- viability, T/C [12]: 87.8%
- viability, T/C [13]: 98.9%
- viability, T/C [14]: 96.5%
- viability, T/C (second compound 0.01 µM, first compound 0.316 µM): 103%
- viability, T/C (second compound 0.01 µM, first compound 1 µM): 106%
- viability, T/C [15]: 84.9%
- viability, T/C [16]: 79%
- viability, T/C [17]: 91.3%
- viability, T/C [18]: 88.5%
- viability, T/C (second compound 0.0316 µM, first compound 0.316 µM): 87.9%
- viability, T/C (second compound 0.0316 µM, first compound 1 µM): 91%
- viability, T/C [19]: 58.6%
- viability, T/C [20]: 62.4%
- viability, T/C [21]: 56%
- viability, T/C [22]: 58.5%
- viability, T/C (second compound 0.1 µM, first compound 0.316 µM): 66.6%
- viability, T/C (second compound 0.1 µM, first compound 1 µM): 66.1%
- viability, T/C [23]: 21.4%
- viability, T/C [24]: 18.9%
- viability, T/C [25]: 18.8%
- viability, T/C [26]: 19.7%
- viability, T/C (second compound 0.316 µM, first compound 0.316 µM): 24.1%
- viability, T/C (second compound 0.316 µM, first compound 1 µM): 21.7%
- viability, T/C [27]: 3.05%
- viability, T/C [28]: 2.93%
- viability, T/C [29]: 2.76%
- viability, T/C [30]: 4.51%
- viability, T/C (second compound 1 µM, first compound 0.316 µM): 6.23%
- viability, T/C (second compound 1 µM, first compound 1 µM): 9.27%

SMILES: Cc1nc(NC(=O)N2CCCC2C(N)=O)sc1-c1ccnc(C(C)(C)C(F)(F)F)c1 (stereo not given)
- viability, T/C (compound 0.0316 µM): 103% [middle of 8 runs]
- viability, T/C (compound 0.1 µM): 101% [middle of 8 runs]
- viability, T/C (compound 0.316 µM): 95.9% [middle of 8 runs]
- viability, T/C (compound 1 µM): 77.4% [middle of 8 runs]
- viability, T/C (compound 3.16 µM): 60% [middle of 8 runs]
- viability, T/C (compound 10 µM): 37.3% [middle of 8 runs]
- IC50 (compound alone, run of 04/24/2023): 5.36 µM [middle of 8 runs]

SMILES: CC(C)n1nc(-c2ccc3oc(N)nc3c2)c2c(N)ncnc21
- viability, T/C (compound 0.000316 µM): 111% [middle of 4 runs]
- viability, T/C (compound 0.001 µM): 102% [middle of 4 runs]
- viability, T/C (compound 0.00316 µM): 97.9% [middle of 4 runs]
- viability, T/C (compound 0.01 µM): 89.7% [middle of 4 runs]
- viability, T/C (compound 0.0316 µM): 78.6% [middle of 4 runs]
- viability, T/C (compound 0.1 µM): 34% [middle of 4 runs]
- IC50 (curve of compound): 63.4 nM [middle of 4 runs]

SMILES: CC(=O)c1c(C)c2cnc(Nc3ccc(N4CCNCC4)cn3)nc2n(C2CCCC2)c1=O + COc1c(OCCCN2CCOCC2)ccc2c3n(c(=NC(=O)c4cnc(N)nc4)nc12)CCN3
- IC50 [1]: > 100 nM
- IC50 [2]: > 100 nM
- IC50 [3]: > 100 nM
- IC50 [4]: > 100 nM
- IC50 [5]: < 0.316 nM
- IC50 [6]: < 0.316 nM
- viability, T/C [31]: 106%
- viability, T/C [32]: 98.1%
- viability, T/C [7]: 99.6%
- viability, T/C [8]: 101%
- viability, T/C [9]: 117%
- viability, T/C [10]: 98.9%
- viability, T/C [33]: 98.2%
- viability, T/C [34]: 110%
- viability, T/C [11]: 99.8%
- viability, T/C [12]: 101%
- viability, T/C [13]: 103%
- viability, T/C [14]: 107%
- viability, T/C [35]: 89.7%
- viability, T/C [36]: 100%
- viability, T/C [15]: 106%
- viability, T/C [16]: 99.1%
- viability, T/C [17]: 89.4%
- viability, T/C [18]: 94.2%
- viability, T/C [37]: 68.6%
- viability, T/C [38]: 66.8%
- viability, T/C [19]: 64.8%
- viability, T/C [20]: 61%
- viability, T/C [21]: 70.1%
- viability, T/C [22]: 68.4%
- viability, T/C [39]: 23.5%
- viability, T/C [40]: 23.2%
- viability, T/C [23]: 22.4%
- viability, T/C [24]: 26.3%
- viability, T/C [25]: 27.6%
- viability, T/C [26]: 19.6%
- viability, T/C [41]: 3.72%
- viability, T/C [42]: 3.62%
- viability, T/C [27]: 3.08%
- viability, T/C [28]: 4%
- viability, T/C [29]: 4.37%
- viability, T/C [30]: 2.62%

SMILES: CC(C)n1nc(-c2ccc3oc(N)nc3c2)c2c(N)ncnc21 + COc1c(OCCCN2CCOCC2)ccc2c3n(c(=NC(=O)c4cnc(N)nc4)nc12)CCN3
- IC50 [1]: 57.4 nM
- IC50 [2]: 46.4 nM
- IC50 [3]: 35.4 nM
- IC50 [4]: 14.6 nM
- IC50 [5]: < 0.316 nM
- IC50 [6]: < 0.316 nM
- viability, T/C [31]: 90.5%
- viability, T/C [32]: 79.5%
- viability, T/C [7]: 95.2%
- viability, T/C [8]: 77.8%
- viability, T/C [9]: 72.7%
- viability, T/C [10]: 30.3%
- viability, T/C [33]: 86.2%
- viability, T/C [34]: 89.9%
- viability, T/C [11]: 90.4%
- viability, T/C [12]: 79.5%
- viability, T/C [13]: 62.4%
- viability, T/C [14]: 25.9%
- viability, T/C [35]: 79.1%
- viability, T/C [36]: 86.4%
- viability, T/C [15]: 86%
- viability, T/C [16]: 68.3%
- viability, T/C [17]: 54.5%
- viability, T/C [18]: 21.7%
- viability, T/C [37]: 63.1%
- viability, T/C [38]: 56.8%
- viability, T/C [19]: 61.1%
- viability, T/C [20]: 58.3%
- viability, T/C [21]: 32.8%
- viability, T/C [22]: 13.3%
- viability, T/C [39]: 18.5%
- viability, T/C [40]: 21.5%
- viability, T/C [23]: 18.2%
- viability, T/C [24]: 15.8%
- viability, T/C [25]: 12.2%
- viability, T/C [26]: 5.55%
- viability, T/C [41]: 3.09%
- viability, T/C [42]: 3%
- viability, T/C [27]: 2.48%
- viability, T/C [28]: 3.58%
- viability, T/C [29]: 2.39%
- viability, T/C [30]: 0.95%
